ChEMBL document CHEMBL2040771, “Discovery of a potent inhibitor of anaplastic lymphoma kinase with in vivo antitumor activity” (ACS Med Chem Lett, 2010)
The source made the active and inactive calls. The calls are words filed in the database; no cut-off is given here.

How the values were obtained:
[1] = tested on: Epidermal growth factor receptor (Homo sapiens), P04626+P00533+Q15303+P21860 [UNDEFINED MUTATION]; assay: Inhibition of EGFR L747 to E749 deletion, A750P mutant at 1 uM; assay type: protein assay
[2] = biological target: Serine/threonine-protein kinase 33 (Homo sapiens) (UniProt Q9BYT3); assay: Inhibition of STK33 at 1 uM
[3] = Plasma protein binding in mouse; assay type: ADME, cell-free; details: read-out: PPB (converted)
[4] = tested on: Epidermal growth factor receptor (Homo sapiens), P00533 [L858R]; assay: Inhibition of EGFR L858R mutant at 1 uM; assay type: protein assay
[5] = Tmax in Sprague-Dawley rat at 5 mg/kg, po; assay type: ADME, organism-based; set-up: dose 5 mg/kg, route oral; details: in vivo
[6] = Oral bioavailability in SCID mouse at 10 mg/kg; assay type: ADME, organism-based; details: in vivo
[7] = Inhibition of FLT3 ITD mutant at 0.1 uM
[8] = AUC in beagle dog at 1 mg/kg, iv; assay type: ADME, organism-based, Canis lupus familiaris; set-up: dose 1 mg/kg, route intravenous; details: plasma
[9] = biological target: Protein-tyrosine kinase 6 (Homo sapiens) (UniProt Q13882); assay: Inhibition of BRK at 1 uM
SUP-M2 [10] = assay: Antitumor activity against ALK-positive human SUP-M2 cells xenografted in SCID mouse assessed as complete tumor regression at 55 mg/kg, po bid after 12 days; assay type: functional, organism-based; set-up: dose 55 mg/kg
[11] = Ratio of drug level in tumor to plasma in SCID mouse; assay type: ADME; details: tumor and plasma
[12] = biological target: Proto-oncogene tyrosine-protein kinase ROS (Homo sapiens) (UniProt P08922); assay: Inhibition of ROS at 0.1 uM
[13] = tested on: Receptor-type tyrosine-protein kinase FLT3 (Homo sapiens), P36888 [D835H]; assay: Inhibition of FLT3 D835H mutant at 1 uM
[14] = biological target: Vascular endothelial growth factor receptor 3 (Homo sapiens) (UniProt P35916); assay: Inhibition of FLT4 at 0.1 uM
SUP-M2 [15] = assay: Antitumor activity against ALK-positive human SUP-M2 cells xenografted in po dosed SCID mouse bid after 12 days; assay type: functional, organism-based
[16] = Half life in beagle dog at 1 mg/kg, iv; assay type: ADME, organism-based, Canis lupus familiaris; set-up: dose 1 mg/kg, route intravenous; details: in vivo
[17] = biological target: Tyrosine-protein kinase Srms (Homo sapiens) (UniProt Q9H3Y6); assay: Inhibition of SRMS at 0.1 uM
[18] = biological target: Macrophage colony-stimulating factor 1 receptor (Homo sapiens) (UniProt P07333); assay: Inhibition of CSF1R at 0.1 uM
[19] = tested on: Mast/stem cell growth factor receptor Kit (Homo sapiens), P10721 [D816V]; assay: Inhibition of KIT D816V mutant at 0.1 uM
[20] = Oral bioavailability in beagle dog at 10 mg/kg; assay type: ADME, organism-based, Canis lupus familiaris; details: in vivo
[21] = biological target: Mitogen-activated protein kinase kinase kinase 5 (Homo sapiens) (UniProt Q99683); assay: Inhibition of ASK1 at 0.1 uM
Mus musculus = assay: Toxicity in SCID mouse xenografted with human SUP-M2 cells assessed as weight loss at 30 mg/kg, po BID for 12 days; assay type: organism-based; set-up: dose 30 mg/kg, route oral; details: in vivo, 288 h
[22] = biological target: Serine/threonine-protein kinase PLK4 (Homo sapiens) (UniProt O00444); assay: Inhibition of PLK4 at 0.1 uM
[23] = Plasma clearance in beagle dog at 1 mg/kg, iv by LC/MS/MS analysis; assay type: ADME, organism-based, Canis lupus familiaris; set-up: dose 1 mg/kg, route intravenous
[24] = biological target: Ribosomal protein S6 kinase alpha-1 (Homo sapiens) (UniProt Q15418); assay: Inhibition of RPS6KA1 at 1 uM
[25] = biological target: Mitogen-activated protein kinase kinase kinase 5 (Homo sapiens) (UniProt Q99683); assay: Inhibition of ASK1 at 1 uM
[26] = biological target: Mitogen-activated protein kinase 9 (Homo sapiens) (UniProt P45984); assay: Inhibition of JNK2 at 0.1 uM
Mitogen-activated protein kinase 9 (Homo sapiens), sequence (P45984 whole entry, looked up): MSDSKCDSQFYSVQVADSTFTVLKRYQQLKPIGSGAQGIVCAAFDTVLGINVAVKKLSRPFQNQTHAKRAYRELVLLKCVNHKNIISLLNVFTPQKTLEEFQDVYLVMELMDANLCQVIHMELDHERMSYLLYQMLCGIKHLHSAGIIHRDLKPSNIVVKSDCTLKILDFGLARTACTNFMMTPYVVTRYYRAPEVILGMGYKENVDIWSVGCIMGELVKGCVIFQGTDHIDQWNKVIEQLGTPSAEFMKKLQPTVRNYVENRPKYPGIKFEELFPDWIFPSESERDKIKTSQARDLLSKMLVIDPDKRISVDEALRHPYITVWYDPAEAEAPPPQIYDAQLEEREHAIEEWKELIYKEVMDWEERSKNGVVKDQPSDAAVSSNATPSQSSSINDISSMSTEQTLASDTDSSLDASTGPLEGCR

Mitogen-activated protein kinase kinase kinase 5 (Homo sapiens), sequence (Q99683 whole entry): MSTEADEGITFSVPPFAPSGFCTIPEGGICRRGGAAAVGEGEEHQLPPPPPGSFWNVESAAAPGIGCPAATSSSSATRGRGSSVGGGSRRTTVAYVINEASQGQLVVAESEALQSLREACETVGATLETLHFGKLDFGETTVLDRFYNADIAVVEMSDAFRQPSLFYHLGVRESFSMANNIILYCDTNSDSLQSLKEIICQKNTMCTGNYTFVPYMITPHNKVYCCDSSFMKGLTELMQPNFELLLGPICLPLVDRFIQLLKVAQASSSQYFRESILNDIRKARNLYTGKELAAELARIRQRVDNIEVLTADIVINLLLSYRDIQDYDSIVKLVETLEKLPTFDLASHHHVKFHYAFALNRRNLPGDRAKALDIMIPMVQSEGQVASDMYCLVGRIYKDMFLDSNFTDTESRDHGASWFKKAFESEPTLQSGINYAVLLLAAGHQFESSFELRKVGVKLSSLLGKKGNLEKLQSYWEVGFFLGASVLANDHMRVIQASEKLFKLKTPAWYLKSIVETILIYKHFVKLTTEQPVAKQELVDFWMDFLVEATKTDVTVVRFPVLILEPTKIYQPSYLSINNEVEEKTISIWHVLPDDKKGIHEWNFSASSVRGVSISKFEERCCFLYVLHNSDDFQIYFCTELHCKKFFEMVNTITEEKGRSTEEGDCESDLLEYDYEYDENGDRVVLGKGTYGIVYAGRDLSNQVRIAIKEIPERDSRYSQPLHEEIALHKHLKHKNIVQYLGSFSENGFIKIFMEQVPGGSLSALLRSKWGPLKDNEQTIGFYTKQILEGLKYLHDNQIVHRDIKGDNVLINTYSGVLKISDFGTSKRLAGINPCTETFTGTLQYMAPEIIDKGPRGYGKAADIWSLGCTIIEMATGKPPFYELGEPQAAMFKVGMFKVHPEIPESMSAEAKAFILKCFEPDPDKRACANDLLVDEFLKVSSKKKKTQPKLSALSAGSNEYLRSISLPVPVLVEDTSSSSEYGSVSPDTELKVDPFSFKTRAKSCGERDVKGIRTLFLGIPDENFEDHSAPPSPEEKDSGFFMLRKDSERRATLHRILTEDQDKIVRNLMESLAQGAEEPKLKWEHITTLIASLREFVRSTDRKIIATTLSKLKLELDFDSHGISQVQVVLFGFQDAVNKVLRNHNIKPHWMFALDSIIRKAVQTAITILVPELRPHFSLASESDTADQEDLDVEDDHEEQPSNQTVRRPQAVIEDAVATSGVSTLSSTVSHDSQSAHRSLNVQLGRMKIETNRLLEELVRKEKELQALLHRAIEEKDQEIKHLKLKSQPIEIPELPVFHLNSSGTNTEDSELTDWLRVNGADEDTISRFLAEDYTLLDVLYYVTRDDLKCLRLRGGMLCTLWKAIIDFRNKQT
Protein-tyrosine kinase 6 (Homo sapiens), sequence (Q13882 whole entry, looked up): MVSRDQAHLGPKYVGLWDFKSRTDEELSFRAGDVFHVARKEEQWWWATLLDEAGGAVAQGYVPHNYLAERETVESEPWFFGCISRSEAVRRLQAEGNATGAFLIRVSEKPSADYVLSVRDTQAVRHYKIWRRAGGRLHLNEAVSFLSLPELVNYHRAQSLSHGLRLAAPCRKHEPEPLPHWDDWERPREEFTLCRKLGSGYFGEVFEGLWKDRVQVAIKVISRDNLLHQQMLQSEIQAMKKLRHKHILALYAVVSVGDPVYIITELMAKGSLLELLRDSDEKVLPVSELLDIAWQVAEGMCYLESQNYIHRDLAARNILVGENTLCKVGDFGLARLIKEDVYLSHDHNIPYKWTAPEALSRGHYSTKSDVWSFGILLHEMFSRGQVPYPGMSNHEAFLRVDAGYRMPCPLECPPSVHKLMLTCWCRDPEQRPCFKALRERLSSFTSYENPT
Vascular endothelial growth factor receptor 3 (Homo sapiens), sequence (P35916 whole entry): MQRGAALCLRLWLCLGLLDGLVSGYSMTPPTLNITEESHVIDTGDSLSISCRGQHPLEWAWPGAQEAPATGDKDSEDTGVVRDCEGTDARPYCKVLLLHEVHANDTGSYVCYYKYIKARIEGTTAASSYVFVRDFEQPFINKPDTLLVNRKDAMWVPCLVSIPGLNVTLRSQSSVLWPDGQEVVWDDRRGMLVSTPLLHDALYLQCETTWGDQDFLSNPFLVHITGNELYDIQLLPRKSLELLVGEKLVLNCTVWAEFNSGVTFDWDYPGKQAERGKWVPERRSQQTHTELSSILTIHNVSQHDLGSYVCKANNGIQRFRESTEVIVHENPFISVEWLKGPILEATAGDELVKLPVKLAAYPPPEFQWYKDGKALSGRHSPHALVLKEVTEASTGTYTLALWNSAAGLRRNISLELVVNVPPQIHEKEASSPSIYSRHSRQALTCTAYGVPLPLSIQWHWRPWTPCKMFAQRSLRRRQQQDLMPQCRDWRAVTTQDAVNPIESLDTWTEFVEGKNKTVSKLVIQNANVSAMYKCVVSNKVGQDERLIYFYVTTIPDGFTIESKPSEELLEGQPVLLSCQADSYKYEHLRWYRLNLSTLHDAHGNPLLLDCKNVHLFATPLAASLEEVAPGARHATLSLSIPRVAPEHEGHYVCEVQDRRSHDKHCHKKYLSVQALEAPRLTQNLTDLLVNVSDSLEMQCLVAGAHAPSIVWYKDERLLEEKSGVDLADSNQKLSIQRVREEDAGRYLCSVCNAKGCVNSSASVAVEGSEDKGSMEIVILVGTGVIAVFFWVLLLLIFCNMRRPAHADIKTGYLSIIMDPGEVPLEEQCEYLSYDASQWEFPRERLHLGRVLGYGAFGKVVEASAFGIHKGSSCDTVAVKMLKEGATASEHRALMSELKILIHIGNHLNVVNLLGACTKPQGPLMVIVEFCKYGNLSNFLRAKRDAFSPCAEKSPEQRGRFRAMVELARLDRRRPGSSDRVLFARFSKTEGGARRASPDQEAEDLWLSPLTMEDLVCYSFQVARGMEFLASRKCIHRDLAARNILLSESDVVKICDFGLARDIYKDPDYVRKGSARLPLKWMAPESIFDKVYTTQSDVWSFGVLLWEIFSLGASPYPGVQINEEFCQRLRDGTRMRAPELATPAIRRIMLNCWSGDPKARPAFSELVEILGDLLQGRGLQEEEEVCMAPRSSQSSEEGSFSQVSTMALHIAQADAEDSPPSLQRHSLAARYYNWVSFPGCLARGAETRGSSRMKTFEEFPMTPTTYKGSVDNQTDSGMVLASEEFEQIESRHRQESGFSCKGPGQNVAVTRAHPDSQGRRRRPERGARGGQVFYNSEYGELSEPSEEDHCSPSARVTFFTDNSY
Serine/threonine-protein kinase PLK4 (Homo sapiens), sequence (O00444 whole entry): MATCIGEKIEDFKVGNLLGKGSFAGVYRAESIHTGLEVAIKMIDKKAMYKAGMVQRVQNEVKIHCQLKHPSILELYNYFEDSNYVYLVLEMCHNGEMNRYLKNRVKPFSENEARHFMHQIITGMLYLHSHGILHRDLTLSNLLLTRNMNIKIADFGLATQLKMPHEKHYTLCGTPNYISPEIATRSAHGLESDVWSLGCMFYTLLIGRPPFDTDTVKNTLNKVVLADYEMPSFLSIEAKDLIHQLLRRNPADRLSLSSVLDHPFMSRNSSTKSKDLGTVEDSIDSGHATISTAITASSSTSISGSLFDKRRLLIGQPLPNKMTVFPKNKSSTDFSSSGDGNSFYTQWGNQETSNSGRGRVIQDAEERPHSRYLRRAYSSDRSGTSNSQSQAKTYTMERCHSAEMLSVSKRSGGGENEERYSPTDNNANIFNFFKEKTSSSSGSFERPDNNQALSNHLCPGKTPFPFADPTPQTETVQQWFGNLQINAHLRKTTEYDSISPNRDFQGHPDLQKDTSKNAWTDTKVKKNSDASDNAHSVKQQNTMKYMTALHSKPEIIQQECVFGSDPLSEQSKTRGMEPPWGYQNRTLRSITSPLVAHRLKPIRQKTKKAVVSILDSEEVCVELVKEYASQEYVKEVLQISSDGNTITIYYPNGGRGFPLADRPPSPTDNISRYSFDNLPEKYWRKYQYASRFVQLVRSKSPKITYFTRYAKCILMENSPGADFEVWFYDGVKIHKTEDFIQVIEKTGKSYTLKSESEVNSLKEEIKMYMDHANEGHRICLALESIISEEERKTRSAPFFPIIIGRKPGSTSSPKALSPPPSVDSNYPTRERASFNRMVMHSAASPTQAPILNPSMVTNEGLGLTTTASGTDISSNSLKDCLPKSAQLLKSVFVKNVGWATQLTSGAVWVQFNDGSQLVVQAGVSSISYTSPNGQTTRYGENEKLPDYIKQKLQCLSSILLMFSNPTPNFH
Tyrosine-protein kinase Srms (Homo sapiens), sequence (Q9H3Y6 whole entry): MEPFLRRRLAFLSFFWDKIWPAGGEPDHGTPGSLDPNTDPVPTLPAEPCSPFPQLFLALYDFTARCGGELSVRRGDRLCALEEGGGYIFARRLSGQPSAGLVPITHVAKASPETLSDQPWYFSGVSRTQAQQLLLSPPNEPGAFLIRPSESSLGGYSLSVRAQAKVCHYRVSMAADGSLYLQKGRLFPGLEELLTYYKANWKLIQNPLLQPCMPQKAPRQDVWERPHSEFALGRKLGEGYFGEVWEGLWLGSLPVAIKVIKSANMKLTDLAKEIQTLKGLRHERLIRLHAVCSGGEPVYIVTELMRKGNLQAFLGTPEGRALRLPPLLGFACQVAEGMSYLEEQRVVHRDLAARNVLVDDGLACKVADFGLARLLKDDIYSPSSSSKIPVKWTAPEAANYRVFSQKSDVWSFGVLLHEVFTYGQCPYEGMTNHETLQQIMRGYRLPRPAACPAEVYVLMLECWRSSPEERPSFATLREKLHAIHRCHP

## CCN1C(=O)CCCc2c1ccc(Nc1ncc(Cl)c(N[C@H]3[C@@H](C(N)=O)[C@@H]4C=C[C@H]3C4)n1)c2OC
[1]
  inhibition: 94%
[2]
  inhibition: 99%
[3]
  fraction unbound: 0.08
[4]
  inhibition: 92%
[5]
  Tmax: 48 min
[6]
  bioavailability: 32%
[7]
  inhibition: < 50%
[8]
  AUC: 773 ng·h/mL
[9]
  inhibition: 100%
SUP-M2 [10]
  Activity: Active
[11]
  Kp: 1.3
[12]
  inhibition: 77%
[13]
  inhibition: 95%
[14]
  inhibition: 72%
SUP-M2 [15]
  Activity: Dose-dependent effect
[16]
  half-life: 66 min
[17]
  inhibition: < 50%
[18]
  inhibition: < 50%
[19]
  inhibition: 94%
[20]
  bioavailability: 31%
[21]
  inhibition: 72%
Mus musculus
  Activity: Non-toxic
[22]
  inhibition: 95%
[23]
  clearance: 22 mL/min/kg
[24]
  inhibition: 100%
[25]
  inhibition: 99%
[26]
  inhibition: < 50%
